Assay results taken from patent publication US20110196006A1, “IMAZALIL COMPOSITIONS COMPRISING ALKOXYLATED AMINES” (priority 2004, published 2011).

Legend:
Microdochium nivale [1] = experiment: Experiment 1: poison plate assay (growth inhibition, MIC); type: cell-based; details: potato dextrose agar, 21° C., dark, 75% relative humidity, imazalil 6.66-1.58 ppm, alkoxylated amine 26.66-6.33 ppm, combinations imazalil:amine 1 to 4
Description: Activity against growth of Microdochium nivale was determined with the poison plate assay. A calculated amount of a stock solution (containing either imazalil or an alkoxylated amine of formula (I) dissolved in dimethyl sulfoxide was pipetted into multiwell plates. Culture medium (potato dextrose agar) was added aseptically and uniform distribution was obtained by shaking. The plates were inoculated with the test fungus Microdochium nivale (suspension of 6.10^5 spores/ml). The multi-well plates were kept in the dark at 21° C. and a relative humidity of 75%. The stock solution comprising imazalil at a concentration of 2000 ppm was pipetted in the multiwell plates in order to reach a final test concentration in six decreasing steps ranging from 6.66, 5.00, 3.75, 2.81, 2.11 and 1.58 ppm. The stock solution comprising an alkoxylated amine of formula (I) at a concentration of 8000 ppm was pipetted in the multiwell plates in order to reach a final test concentration in six decreasing steps ranging from 26.66, 20.00, 15.00, 11.25, 8.44, and 6.33 ppm wherein the ratio of imazalil to alkoxylated amine of formula (I) is 1 to 4 in each of the wells containing both imazalil and alkoxylated amine (I). The lowest concentration of each test compound or mixture of test compounds sufficient to inhibit visible growth was taken as the minimum inhibitory concentration (MIC). The MIC were taken as end points of activity. End points for the combinations of imazalil with an alkoxylated amine of formula (I) were then compared with the end points for these test compound when employed individually.

Microdochium nivale [2] = experiment: Experiment 2: poison plate assay (growth inhibition, MIC); type: cell-based; details: as Experiment 1, imazalil 10-2.37 ppm, alkoxylated amine 40-9.49 ppm
Description: Activity against growth of Microdochium nivale was determined with the poison plate assay. A calculated amount of a stock solution (containing either imazalil or an alkoxylated amine of formula (I) dissolved in dimethyl sulfoxide was pipetted into multiwell plates. Culture medium (potato dextrose agar) was added aseptically and uniform distribution was obtained by shaking. The plates were inoculated with the test fungus Microdochium nivale (suspension of 6.10^5 spores/ml). The multi-well plates were kept in the dark at 21° C. and a relative humidity of 75%. The lowest concentration of each test compound or mixture of test compounds sufficient to inhibit visible growth was taken as the minimum inhibitory concentration (MIC). The MIC were taken as end points of activity. End points for the combinations of imazalil with an alkoxylated amine of formula (I) were then compared with the end points for these test compound when employed individually. A similar poison plate assay was run as described in Experiment 1, but the final concentrations of imazalil now ranged from 10, 7.50, 5.63, 4.22, 3.16 to 2.37 ppm. The final concentrations of alkoxylated amine of formula (I) now ranged from 40, 30, 22.50, 16.88, 12.66 to 9.49 ppm.

[3] = Microdochium nivale, read-out: MIC-values (lowest concentration sufficient to inhibit visible growth)

C=CCOC(Cn1ccnc1)c1ccc(Cl)cc1Cl (centres unmarked) [imazalil]
MIC (Microdochium nivale [1]; [3]): 2.81 µg/mL | MIC (Microdochium nivale [2]; [3]): 3.16 µg/mL

N,N′,N′-tris(2-hydroxyethyl)-N-cocoalkyl-1,3-diaminopropane [ethoduomeen C13]
MIC-values (lowest concentration sufficient to inhibit visible growth) (Microdochium nivale [2]): >40 ppm

N,N′,N′-tris-(2-hydroxyethyl)-N-tallowalkyl-1,3-diaminopropane [ethoduomeen T13]
MIC-values (lowest concentration sufficient to inhibit visible growth) (Microdochium nivale [1]): >26.7 ppm

bis-(2-hydroxyethyl)cocoalkylamine [ethomeen C12]
MIC-values (lowest concentration sufficient to inhibit visible growth) (Microdochium nivale [1]): >26.7 ppm
